Measurements taken from PubChem BioAssay (NCI).
Several values for one entry are separate records, joined by “and”; a condition that tells them apart may be missing. Identical values can stand only once.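 Following 48 hours of exposure in 96-well plates, responses at five concentrations were used to interpolate endpoints linearly. At the GI50, growth is halved. Definition used: TGI = concentration required for complete inhibition of growth.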

Key:
Assay in all cases: NCI-60 cell line screen, 48 h
[1] = system: UO-31 renal
[2] = system: K-562 leukemia
[3] = system: EKVX NSCLC
[4] = system: SK-MEL-5 melanoma
[5] = system: KM12 colon
[6] = system: SK-OV-3 ovarian
[7] = system: IGROV1 ovarian
[8] = system: TK-10 renal
[9] = system: MALME-3M melanoma
[10] = system: SK-MEL-28 melanoma

Compound	GI50 [1] [µM]	TGI [1]	GI50 [2] [µM]	TGI [2] [µM]	GI50 [3] [µM]	TGI [3]	GI50 [4] [µM]	TGI [4]	GI50 [5] [µM]	TGI [5]	GI50 [6] [µM]	TGI [6]	GI50 [7] [µM]	TGI [7]	GI50 [8] [µM]	TGI [8]	TGI [9]	TGI [10]	GI50 [9] [µM]	GI50 [10] [µM]
O=S(=O)(NCCCNc1cc(-c2cn(-c3ccccc3)nc2-c2cccc(O)c2)ccn1)c1ccc(Cl)cc1	2.03	8.64 µM	0.437	2.5	2.05	29.6 µM	1.23	2.55 µM	1.95	4.93 µM	2.35	7.35 µM	2.96	13.2 µM	3.16	8.97 µM	–	–	–	–
CC1(C)OC(=O)C(=C2CC(c3ccccc3)c3ccccc32)C(=O)O1 (configuration not stated)	–	> 100 µM	–	> 100	–	> 100 µM	–	> 100 µM	–	–	–	> 100 µM	–	> 100 µM	–	> 100 µM	> 100 µM	> 100 µM	–	–
CCCCCCCCCC(CCCC(O)CC(=O)O)OC1OC(COC2OC(C)C(O)C(O)C2O)C(O)C(O)C1OC1OC(CO)C(O)C(O)C1OC1OC(C)C(O)C(O)C1O (configuration not stated)	> 40	> 40 µM	> 40	> 40	> 40	> 40 µM	> 40	> 40 µM	> 40	> 40 µM	> 40	> 40 µM	> 40	> 40 µM	> 40	> 40 µM	> 40 µM	> 40 µM	> 40	> 40
COc1cc(C2C(C#N)=C(N)Oc3cc(O)ccc32)cc(OC)c1OC (configuration not stated)	3.84	> 100 µM	0.435	> 100	6.49	> 100 µM	0.37	26.7 µM	0.454	63.3 µM	0.481	> 43.9 µM	2.19	> 100 µM	8.61	> 100 µM	> 100 µM	> 100 µM	0.644	0.86
CN(C)/C(N)=N/C(N)=S	–	> 100 µM	–	> 100	–	> 100 µM	–	–	–	> 100 µM	–	> 100 µM	–	> 100 µM	–	> 100 µM	> 100 µM	> 100 µM	–	–
CC([O-])C(=O)[O-].NCC1CCC1CN.[Pt+4] (configuration not stated)	–	–	> 10	> 10	> 10	> 10 µM	7.41	> 10 µM	> 10	> 10 µM	> 10	> 10 µM	> 10	> 10 µM	> 10	> 10 µM	> 10 µM	> 10 µM	> 10	> 10
COC(=O)C1C2CCCN2OC1(C)CO (configuration not stated)	–	> 100 µM	–	> 100	–	> 100 µM	–	> 100 µM	–	> 100 µM	–	> 100 µM	–	> 100 µM	–	> 100 µM	–	> 100 µM	–	–
COc1ccc(-c2coc3cc(OC)cc(O)c3c2=O)cc1	–	–	–	> 100	–	> 100 µM	–	> 100 µM	–	> 100 µM	–	> 100 µM	–	> 100 µM	–	84.4 µM	> 100 µM	> 100 µM	–	–
CCCN1CCN(c2ccc3nc(-c4ccc5nc(-c6ccc(OCC)c(OCC)c6)[nH]c5c4)[nH]c3c2)CC1	1.58	3.32 µM	–	–	1.4	7.72 µM	0.424	1.77 µM	0.684	2.08 µM	1.6	7.54 µM	0.475	2.42 µM	1.3	4.13 µM	1.19 µM	2.19 µM	0.0647	0.755
S=C(N/N=C(/c1ccccc1)c1ccccn1)Nc1cccc(Cl)c1	1.51	3.34 µM and 4.99 µM	–	–	0.433	1.88 µM and 4.7 µM	0.358	1.46 µM and 4.08 µM	0.144	3.55 µM and 6.75 µM	0.0671	2.93 µM and 3.73 µM	0.28	2.03 µM and 6.68 µM	0.0277	2.41 µM and 6 µM	2.22 µM and 5.37 µM	7.69 µM and 6.18 µM	0.0169	2.09
Cc1ccc(C2=C(c3ccccc3)C(O)(c3ccc(C)cc3)C(c3ccccc3)=C2c2ccc(C)cc2)cc1	–	–	–	> 100	–	> 100 µM	–	> 100 µM	–	> 100 µM	–	> 100 µM	–	> 100 µM	–	> 100 µM	> 100 µM	> 100 µM	–	–
COC(=O)NN1C(C)=C(C(=O)OC)C2(CCOC2=O)C1(C)O (configuration not stated)	–	> 100 µM	–	> 100	–	> 100 µM	–	–	–	> 100 µM	–	> 100 µM	–	> 100 µM	–	> 100 µM	> 100 µM	> 100 µM	–	–
CCc1ccc(Nc2cc(C)nc3nc(C)nn23)cc1	23.6	> 100 µM	35.5	> 100	–	–	32.9	> 100 µM	70.6	> 100 µM	> 100	> 100 µM	61.2	> 100 µM	61.7	> 100 µM	> 100 µM	> 100 µM	69.5	48.8
C/C(=N\NC(=O)c1ccncc1)c1ccc(O)cc1O	2.82	20.5 µM	6.62	> 100	2.56	> 100 µM	3.47	29.6 µM	8.59	> 100 µM	5.34	> 100 µM	4.89	63.4 µM	> 100	> 100 µM	–	> 100 µM	–	9.26
CN1CCCCC1CCN1c2ccccc2Sc2ccc(S(C)=O)cc21 (configuration not stated)	–	–	–	> 100	–	> 100 µM	–	> 100 µM	–	> 100 µM	–	> 100 µM	–	> 100 µM	–	> 100 µM	> 100 µM	> 100 µM	–	–
CC1=C(c2cc(C(=O)Nc3nccs3)nc(NC#N)n2)Sc2ccccc2N1	–	> 100 µM	–	> 100	–	> 100 µM	–	> 100 µM	–	> 100 µM	–	–	–	> 100 µM	–	> 100 µM	> 100 µM	> 100 µM	–	–
CN(C)CCC1(C2=CCCC2)CC/C(=C\c2ccccc2)C1=O (configuration not stated)	–	30.7 µM	–	46.5	–	25.7 µM	–	27.8 µM	–	28.8 µM	–	–	–	29.8 µM	–	29 µM	31.7 µM	38 µM	–	–
